According to patent US9580458B2, “Polymorphic form of sodium hyodeoxycholate (NaHDC) and its preparation process” (PRODOTTI CHIMICI E […].P.A., priority 2013, dated 2017):
Entries after “also recorded” stand apart in the source; their conditions may differ.

Tests used:
Assay type in all cases: physicochemical
[1] = Thermal stability by DSC and XPRD at variable temperature; conditions: for temperature up to which the form is stable: DSC / XPRD at variable temperature
Description: The thermal properties of the polymorphic forms described were obtained through differential scanning calorimetry (DSC). The DSC profiles were obtained with a heat flow instrument DSC 200 F3 Maia® (Netzsch). The DSC 200 F3 Maia® instrument was calibrated for temperature and enthalpy with an indium standard (melting point: 156.6° C.; ΔHf=28.45 Jg^−1). The samples were analysed according to the following conditions: • temperature range: 25-350° C.; • heating rate: 10° C./min; • sample-holder: perforated aluminium crucible; • gas: anhydrous nitrogen at a flow rate of 60 mL/min.
In order to determine the X-ray powder diffraction profiles (XPRD) a diffractometer Panalytical X'Pert Pro equipped with detector X'Celerator and X-ray tube (PW3373/00 Cu LFF DK312503) with current intensity 40 mA and voltage 40 kV was used. The instrument was calibrated with a silicon powder standard PANalytical640. The sample was positioned on a glass sample-carrier and analysed using the following parameters: • Scanning range(°): 3.0010-39.9997 • Data acquisition range(°): 0.0167 • Scanning mode: Continuous • Counter time (s): 12,700 • soller slits (rad): 0.04 • divergence slits: ¼ • anti-scatter slits: ½

[2] = Reprecipitation of FI/FII 1:1 (w/w) in ethyl acetate, 48 hours at 25° C., XPRD of the solid
Description: Into a 2 liter jacketed reactor 1000 ml of ethyl acetate (EtOAc) is loaded, the mechanical stirrer is actuated setting the rate to 200 rpm and then 25 g of polymorphic form FI and 25 g of polymorphic form FII are slowly added. It is left under stirring for 48 hours at a temperature of 25° C.
It is filtered on buckner and the white solid obtained is washed with 50 ml of EtOAc (1 Volume with respect to the loaded total dry solid NaHDC polymorphic form FI and NaHDC polymorphic form FII).

[3] = Dynamic vapour sorption (DVS) analysis in isotherm at 40° C.; conditions: DVS isotherm 40° C.
Description: (§1) To check the stability of the samples DVS (Dynamic vapour sorption) measurements were made using the DVS Intrinsic SMS instrument. The weight change of the sample associated with the change in humidity in a chamber at constant temperature was determined. Each sample was weighed in a range from […], with mass change equal to ±150 mg and mass resolution equal to ±0.1 μg, and positioned in the instrument and analysed at 25° C.±0.1 and 40° C.±0.1 in a relative humidity range comprised between 0% RH and 90% RH with increments of 10% RH, accuracy equal to ±1% RH. Moreover, the sample is brought from 0-90-0% RH with stages of 10% RH. The duration of these stages is as a function of the stabilization of the weight: if the weight change remains less than 0.002 dm (%)/dt (min) for 10 min, it goes on to the next stage. However, the stabilization for each stage cannot last more than 6 hours and in that case the instrument passes on to the next stage. The last stage contemplates the stabilization of the sample at 0% RH for 4 hours.
(§2) To check the stability of the samples DVS (Dynamic vapour sorption) measurements were made using the DVS Intrinsic SMS instrument. The weight change of the sample associated with the change in humidity in a chamber at constant temperature was determined. Each sample is positioned in the instrument and analysed at 40° C.±0.1 in a humidity range from 0% to 90% RH with increments of 10% RH, RH accuracy equal to ±1% RH. The sample is stabilized at 0% RH for 4 hours. The duration of the single stages is as a function of the stabilization of the weight, if the weight change remains less than 0.002 dm (%)/dt (min) for 10 min, it goes on to the next stage. The stabilization cannot last more than 6 hours and in that case it passes on to the next stage. The last stage contemplates the stabilization of the sample at 0% RH for 4 hours.

[4] = Stability of the polymorphic form in the formulation of a medicinal product; conditions: inserted into the formulation of a medicinal product
[5] = Dynamic vapour sorption (DVS) analysis in isotherm at 25° C.; conditions: for weight change at 0% RH in desorption / water still contained at the inflection at about 40% RH in desorption / weight change preserved in desorption up to 50% RH / weight change in sorption at 70% RH / weight change in sorption at 90% RH / weight change in sorption at 30% RH / change in weight in sorption at 20% RH: DVS isotherm 25° C.; for water still contained at the inflection at about 40% RH in desorption: about 40% RH (corresponds to about 4 water molecules); for weight change preserved in desorption up to 50% RH: stable up to 50% RH (corresponds to about 8 water molecules)
Description: as §1
as §2, with “In order to verify the stability” for “To check the stability”, “measurements were carried out using the” for “measurements were made using the”, “Each sample was positioned in” for “Each sample is positioned in”, “analysed at 25° C.±0.1 in” for “analysed at 40° C.±0.1 in”, “humidity range that ranges from 0%” for “humidity range from 0%”, “of the weight: if the” for “of the weight, if the”
as §2, with “Each sample was positioned in” for “Each sample is positioned in”, “analysed at 25° C.±0.1 in” for “analysed at 40° C.±0.1 in”, “from 0% RH to 90%” for “from 0% to 90%”, “10% RH, accuracy equal” for “10% RH, RH accuracy equal”, “of the weight: if the” for “of the weight, if the”

[6] = Stability tests according to guidelines ICH Q1A at 25° C./60% RH and 40° C./75% RH
[7] = listed as mixture of forms of NaHDC

| Structure (SMILES) | temperature up to which the form is stable [1] | weight change at 0% RH in desorption ([3]; desorption) | weight change in sorption at 70% RH ([3]; sorption) | weight change in sorption at 90% RH ([3]; sorption) | weight change at 0% RH in desorption [5] | water still contained at the inflection at about 40% RH in desorption [5] | weight change preserved in desorption up to 50% RH [5] | weight change in sorption at 70% RH [5] | weight change in sorption at 90% RH [5] | weight change in sorption at 30% RH [5] | further results |
| --- | --- | --- | --- | --- | --- | --- | --- | --- | --- | --- | --- |
| C[C@H](CCC(=O)[O-])[C@H]1CC[C@H]2[C@@H]3C[C@H](O)[C@@H]4C[C@H](O)CC[C@]4(C)[C@H]3CC[C@]12C.[Na+] [polymorphic form FII, sodium 3α,6α-dihydroxy-5β,-cholan-24-oate] | 260 °C | about 6% | less than 2% | about 45% | zero | about 18% | about 34% | less than 2% | about 35% |  | temperature of conversion into the polymorphic form FI on heating ([1]; heating, solid-solid conversion into form FI): 280 °C; thermodynamic stability among the forms ([2]; room temperature): most thermodynamically stable one at room temperature and up to 260 °C; also recorded: most thermodynamically stable form at room temperature; shape of the desorption curve at 50-40% RH ([3]; desorption, 50-40% RH): plateau; relative humidity up to which the sample is stable in sorption ([3]; sorption): about 70 % RH; stability over time in the formulation (interconversion into other polymorphic forms) [4]: stable over time; hygroscopic behaviour ([5]; humidity sorption cycle in isotherm at 25° C. and at 40° C. (FIGS. 10-13, 27, 28, 58)): non-hygroscopic; stability with regard to humidity in ICH Q1A tests [6]: surprising and unforeseeable stability with regard to humidity both at 25 °C and at 40 °C |
| C[C@H](CCC(=O)[O-])[C@H]1CC[C@H]2[C@@H]3C[C@H](O)[C@@H]4C[C@H](O)CC[C@]4(C)[C@H]3CC[C@]12C.[Na+] [amorphous form of NaHDC, sodium 3α,6α-dihydroxy-5β,-cholan-24-oate] |  |  |  |  | weight that is less than the starting weight | about 17% | about 34% | 22% | about 35% | about 6% |  |
| C[C@H](CCC(=O)[O-])[C@H]1CC[C@H]2[C@@H]3C[C@H](O)[C@@H]4C[C@H](O)CC[C@]4(C)[C@H]3CC[C@]12C.[Na+] [NaHDC mixture, sodium 3α,6α-dihydroxy-5β,-cholan-24-oate] |  |  |  |  |  | about 18% | about 34% |  | about 35% |  | water still contained at the inflection at about 40% RH in desorption [5, 7]: about 18%; change in weight in sorption at 20% RH [5]: about 3%; change in weight in sorption at 20% RH [5, 7]: about 3%; weight change in sorption at 70% RH [5, 7]: 15% |
| C[C@H](CCC(=O)[O-])[C@H]1CC[C@H]2[C@@H]3C[C@H](O)[C@@H]4C[C@H](O)CC[C@]4(C)[C@H]3CC[C@]12C.[Na+] [polymorphic form FI, sodium 3α,6α-dihydroxy-5β,-cholan-24-oate] | 280 °C | zero | 8% | about 43% | zero | about 18% | about 34% |  | about 35% | about 2% | interconversion of the polymorphic form on reprecipitation ([2]; FI and FII 1:1 weight/weight, ethyl acetate, 48 hours, room temperature (20-25° C.)): completely converts into the polymorphic form FII; also recorded: interconverts into the polymorphic form FII; change in weight at the plateau at 50-40% RH in desorption ([3]; desorption, 50-40% RH): about 17%; weight change in sorption at 30% RH ([3]; sorption, 30% RH): about 2% |
